Results as given in ChEMBL document CHEMBL5678804 (Cancer Cell, 2011).
Active and inactive are the calls of the source. The calls are words filed in the database; no cut-off is given here.

Legend:
[1] = system: BaF3; assay: Antileukemic activity against mouse BaF3 cells harbouring BCR-ABL1 T315I mutant transduced with 5-FU treated bone marrow xenografted in Balb/c mouse assessed as improvement in circulating leukocyte count at 100 mg/kg, po administered once daily measured upto 56 days; assay type: functional, organism-based; conditions: time <= 56.0 day
[2] = target: Tyrosine-protein kinase CSK (Homo sapiens, UniProt P41240); assay: Inhibition of human wild type CSK using PolyEY as substrate preincubated for 2 hrs followed by ATP addition and measured every 2 mins for […] by spectrophotometric analysis
[3] = target: Ephrin type-A receptor 7 (Homo sapiens, UniProt Q15375); assay: Inhibition of human wild type EPHA7 using PolyEY as substrate preincubated for 2 hrs followed by ATP addition and measured every 2 mins for […] by spectrophotometric analysis
[4] = target: Fibroblast growth factor receptor 3 (Homo sapiens, UniProt P22607); assay: Inhibition of human wild type FGFR3 using PolyEY as substrate preincubated for 2 hrs followed by ATP addition and measured every 2 mins for […] by spectrophotometric analysis
[5] = target: Dual specificity tyrosine-phosphorylation-regulated kinase 3 (Homo sapiens, UniProt O43781); assay: Inhibition of human wild type DYRK3 using RBER-IRStide as substrate preincubated for 2 hrs followed by ATP addition and measured every 2 mins for […] by spectrophotometric analysis
Sequence of Dual specificity tyrosine-phosphorylation-regulated kinase 3 (O43781 whole entry): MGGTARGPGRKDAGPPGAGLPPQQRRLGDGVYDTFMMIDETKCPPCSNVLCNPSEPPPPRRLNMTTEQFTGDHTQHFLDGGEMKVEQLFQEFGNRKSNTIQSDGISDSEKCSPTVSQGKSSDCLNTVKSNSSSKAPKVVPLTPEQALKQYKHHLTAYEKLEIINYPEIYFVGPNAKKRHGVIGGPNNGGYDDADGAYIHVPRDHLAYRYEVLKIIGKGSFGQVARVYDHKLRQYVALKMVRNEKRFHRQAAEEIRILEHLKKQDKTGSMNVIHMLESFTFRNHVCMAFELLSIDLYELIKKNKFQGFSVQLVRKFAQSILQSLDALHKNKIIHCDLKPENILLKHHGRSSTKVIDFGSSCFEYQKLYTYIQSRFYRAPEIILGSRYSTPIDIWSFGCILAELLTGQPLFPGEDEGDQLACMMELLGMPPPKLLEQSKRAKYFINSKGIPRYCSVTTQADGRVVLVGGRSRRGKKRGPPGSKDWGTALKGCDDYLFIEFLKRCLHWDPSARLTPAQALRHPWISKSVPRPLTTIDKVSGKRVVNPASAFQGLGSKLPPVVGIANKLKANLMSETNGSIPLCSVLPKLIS

[6] = target: Fibroblast growth factor receptor 4 (Homo sapiens, UniProt P22455); assay: Inhibition of human wild type FGFR4 using PolyEY as substrate preincubated for 2 hrs followed by ATP addition and measured every 2 mins for […] by spectrophotometric analysis
[7] = target: Macrophage colony-stimulating factor 1 receptor (Homo sapiens, UniProt P07333); assay: Inhibition of human wild type FMS using PolyEY as substrate preincubated for 2 hrs followed by ATP addition and measured every 2 mins for […] by spectrophotometric analysis
[8] = target: Homeodomain-interacting protein kinase 4 (Homo sapiens, UniProt Q8NE63); assay: Inhibition of human wild type HIPK4 using RBER-IRStide as substrate preincubated for 2 hrs followed by ATP addition and measured every 2 mins for […] by spectrophotometric analysis
[9] = target: Mitogen-activated protein kinase 9 (Homo sapiens, UniProt P45984); assay: Inhibition of human wild type JNK2alpha2 using ATF2 as substrate preincubated for 2 hrs followed by ATP addition and measured every 2 mins for […] by spectrophotometric analysis
Sequence of Mitogen-activated protein kinase 9 (P45984 whole entry): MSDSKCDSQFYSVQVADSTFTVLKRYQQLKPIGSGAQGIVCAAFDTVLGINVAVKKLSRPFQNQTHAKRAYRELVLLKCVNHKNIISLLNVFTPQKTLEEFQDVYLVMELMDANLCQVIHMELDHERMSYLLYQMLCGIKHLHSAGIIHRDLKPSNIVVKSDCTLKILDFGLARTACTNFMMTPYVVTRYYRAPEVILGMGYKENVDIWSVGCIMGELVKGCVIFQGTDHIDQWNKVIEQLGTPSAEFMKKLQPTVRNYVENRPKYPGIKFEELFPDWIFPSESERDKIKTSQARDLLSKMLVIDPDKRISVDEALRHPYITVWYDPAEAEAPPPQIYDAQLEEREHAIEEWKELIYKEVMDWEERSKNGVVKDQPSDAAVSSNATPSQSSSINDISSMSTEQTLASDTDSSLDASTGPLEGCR

[10] = target: Hepatocyte growth factor receptor (Homo sapiens, UniProt P08581); assay: Inhibition of human wild type MET using Poly(Ala,Glu,Lys,Tyr)6:2:5:1 as substrate preincubated for 2 hrs followed by ATP addition and measured every 2 mins for […] by spectrophotometric analysis
[11] = target: Calcium/calmodulin-dependent protein kinase type 1 (Homo sapiens, UniProt Q14012); assay: Inhibition of human CAMK1alpha preincubated for 2 hrs followed by ATP addition and measured every 2 mins for […] by spectrophotometric analysis
[12] = target: Mitogen-activated protein kinase kinase kinase 8 (Homo sapiens, UniProt P41279); assay: Inhibition of human wild type COT1 using RBER-CHKtide as substrate preincubated for 2 hrs followed by ATP addition and measured every 2 mins for […] by spectrophotometric analysis
[13] = target: Megakaryocyte-associated tyrosine-protein kinase (Homo sapiens, UniProt P42679); assay: Inhibition of human wild type CTK using PolyEY as substrate preincubated for 2 hrs followed by ATP addition and measured every 2 mins for […] by spectrophotometric analysis
[14] = target: Death-associated protein kinase 1 (Homo sapiens, UniProt P53355); assay: Inhibition of human wild type DAPK1 using RBER-GSK3([…] to […]) as substrate preincubated for 2 hrs followed by ATP addition and measured every 2 mins for […] by spectrophotometric analysis
Sequence of Death-associated protein kinase 1 (P53355 whole entry): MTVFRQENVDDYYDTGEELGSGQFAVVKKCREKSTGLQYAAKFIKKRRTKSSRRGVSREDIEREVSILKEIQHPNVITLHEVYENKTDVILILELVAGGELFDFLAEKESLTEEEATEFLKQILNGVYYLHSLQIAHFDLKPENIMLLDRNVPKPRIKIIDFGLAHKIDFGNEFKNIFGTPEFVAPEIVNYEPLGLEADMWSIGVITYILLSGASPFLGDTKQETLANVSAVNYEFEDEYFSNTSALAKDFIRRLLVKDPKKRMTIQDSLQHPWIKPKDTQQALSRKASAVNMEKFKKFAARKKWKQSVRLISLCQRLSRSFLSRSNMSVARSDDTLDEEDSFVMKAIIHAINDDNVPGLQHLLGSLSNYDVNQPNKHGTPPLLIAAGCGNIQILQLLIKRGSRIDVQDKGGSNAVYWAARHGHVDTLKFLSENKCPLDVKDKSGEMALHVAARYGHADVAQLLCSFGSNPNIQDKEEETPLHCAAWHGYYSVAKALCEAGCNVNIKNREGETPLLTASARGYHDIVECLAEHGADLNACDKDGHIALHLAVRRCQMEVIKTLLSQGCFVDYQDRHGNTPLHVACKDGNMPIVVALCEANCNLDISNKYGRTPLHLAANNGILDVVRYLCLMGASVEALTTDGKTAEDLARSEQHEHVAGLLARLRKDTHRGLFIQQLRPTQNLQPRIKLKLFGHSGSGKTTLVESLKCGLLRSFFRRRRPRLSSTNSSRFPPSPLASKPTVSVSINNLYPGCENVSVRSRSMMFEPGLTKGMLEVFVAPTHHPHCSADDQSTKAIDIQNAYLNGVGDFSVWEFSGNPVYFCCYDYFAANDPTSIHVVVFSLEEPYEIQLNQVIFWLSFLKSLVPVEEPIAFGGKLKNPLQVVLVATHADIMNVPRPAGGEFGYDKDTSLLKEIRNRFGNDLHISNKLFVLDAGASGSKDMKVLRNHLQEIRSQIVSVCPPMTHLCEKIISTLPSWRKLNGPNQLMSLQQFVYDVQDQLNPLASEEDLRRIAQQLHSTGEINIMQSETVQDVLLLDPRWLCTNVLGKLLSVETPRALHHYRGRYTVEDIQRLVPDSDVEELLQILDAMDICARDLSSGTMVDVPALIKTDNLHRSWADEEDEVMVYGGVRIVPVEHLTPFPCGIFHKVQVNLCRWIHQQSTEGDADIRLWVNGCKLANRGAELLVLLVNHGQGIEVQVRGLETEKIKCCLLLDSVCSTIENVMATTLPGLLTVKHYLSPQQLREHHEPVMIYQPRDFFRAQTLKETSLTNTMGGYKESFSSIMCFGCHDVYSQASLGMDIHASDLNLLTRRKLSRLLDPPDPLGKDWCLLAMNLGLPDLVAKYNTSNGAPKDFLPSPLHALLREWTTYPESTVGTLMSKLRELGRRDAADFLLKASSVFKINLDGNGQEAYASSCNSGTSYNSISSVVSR

[15] = target: Mitogen-activated protein kinase 3 (Homo sapiens, UniProt P27361); assay: Inhibition of human wild type ERK1 using RBER-CHKtide as substrate preincubated for 2 hrs followed by ATP addition and measured every 2 mins for […] by spectrophotometric analysis
Sequence of Mitogen-activated protein kinase 3 (P27361 whole entry): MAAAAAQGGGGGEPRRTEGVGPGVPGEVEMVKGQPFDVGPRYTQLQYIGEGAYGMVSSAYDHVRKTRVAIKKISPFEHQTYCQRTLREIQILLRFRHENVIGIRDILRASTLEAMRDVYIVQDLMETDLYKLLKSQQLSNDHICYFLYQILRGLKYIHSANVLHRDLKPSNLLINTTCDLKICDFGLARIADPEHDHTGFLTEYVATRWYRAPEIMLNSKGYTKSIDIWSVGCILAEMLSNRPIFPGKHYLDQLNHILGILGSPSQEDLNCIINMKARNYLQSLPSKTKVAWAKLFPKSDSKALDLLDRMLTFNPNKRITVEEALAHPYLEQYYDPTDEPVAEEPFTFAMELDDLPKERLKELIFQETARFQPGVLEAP

[16] = target: Glycogen synthase kinase-3 alpha (Homo sapiens, UniProt P49840); assay: Inhibition of human wild type GSK3 alpha using SUPT5 754to 837 as substrate preincubated for 2 hrs followed by ATP addition and measured every 2 mins for […] by spectrophotometric analysis
[17] = target: Glycogen synthase kinase-3 beta (Homo sapiens, UniProt P49841); assay: Inhibition of human wild type GSK3 beta using RBER-CHKtide as substrate preincubated for 2 hrs followed by ATP addition and measured every 2 mins for […] by spectrophotometric analysis
[18] = target: Receptor tyrosine-protein kinase erbB-4 (Homo sapiens, UniProt Q15303); assay: Inhibition of human wild type HER4 using PolyEY as substrate preincubated for 2 hrs followed by ATP addition and measured every 2 mins for […] by spectrophotometric analysis
[19] = target: Homeodomain-interacting protein kinase 1 (Homo sapiens, UniProt Q86Z02); assay: Inhibition of human wild type HIPK1 using RBER-CHKtide as substrate preincubated for 2 hrs followed by ATP addition and measured every 2 mins for […] by spectrophotometric analysis
Sequence of Homeodomain-interacting protein kinase 1 (Q86Z02 whole entry): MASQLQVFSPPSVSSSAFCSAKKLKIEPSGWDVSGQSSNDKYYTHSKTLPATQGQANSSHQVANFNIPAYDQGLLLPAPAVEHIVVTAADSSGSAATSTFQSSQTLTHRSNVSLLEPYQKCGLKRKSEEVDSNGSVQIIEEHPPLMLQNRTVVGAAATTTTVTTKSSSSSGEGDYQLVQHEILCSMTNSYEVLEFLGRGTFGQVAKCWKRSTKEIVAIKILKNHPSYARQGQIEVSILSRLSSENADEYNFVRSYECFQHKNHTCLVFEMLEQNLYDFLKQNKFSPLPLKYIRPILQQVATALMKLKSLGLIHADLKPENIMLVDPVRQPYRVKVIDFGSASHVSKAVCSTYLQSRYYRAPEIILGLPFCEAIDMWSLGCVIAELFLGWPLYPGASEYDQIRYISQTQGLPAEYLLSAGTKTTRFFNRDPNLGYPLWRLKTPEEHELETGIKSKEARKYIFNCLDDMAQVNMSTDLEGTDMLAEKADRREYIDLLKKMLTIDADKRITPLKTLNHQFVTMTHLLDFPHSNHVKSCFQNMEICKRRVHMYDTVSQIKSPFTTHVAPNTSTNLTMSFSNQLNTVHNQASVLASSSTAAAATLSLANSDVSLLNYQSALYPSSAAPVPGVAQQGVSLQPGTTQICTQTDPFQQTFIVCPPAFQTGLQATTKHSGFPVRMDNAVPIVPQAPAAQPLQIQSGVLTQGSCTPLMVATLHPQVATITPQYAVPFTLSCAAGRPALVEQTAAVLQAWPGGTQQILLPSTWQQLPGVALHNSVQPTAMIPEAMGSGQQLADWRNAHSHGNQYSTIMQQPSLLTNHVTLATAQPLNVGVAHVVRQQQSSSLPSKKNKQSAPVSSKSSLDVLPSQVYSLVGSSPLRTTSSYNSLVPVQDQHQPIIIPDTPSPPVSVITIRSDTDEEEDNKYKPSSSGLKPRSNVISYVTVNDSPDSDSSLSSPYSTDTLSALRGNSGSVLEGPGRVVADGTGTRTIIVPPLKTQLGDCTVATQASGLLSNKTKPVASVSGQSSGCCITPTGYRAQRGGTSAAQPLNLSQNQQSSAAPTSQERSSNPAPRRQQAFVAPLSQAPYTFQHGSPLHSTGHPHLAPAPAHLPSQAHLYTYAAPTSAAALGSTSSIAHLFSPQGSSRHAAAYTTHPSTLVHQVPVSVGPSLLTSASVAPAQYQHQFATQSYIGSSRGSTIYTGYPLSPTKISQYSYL

[20] = target: Insulin receptor-related protein (Homo sapiens, UniProt P14616); assay: Inhibition of human wild type IRR using Poly(Ala,Glu,Lys,Tyr)6:2:5:1 as substrate preincubated for 2 hrs followed by ATP addition and measured every 2 mins for […] by spectrophotometric analysis
[21] = target: Mitogen-activated protein kinase kinase kinase 10 (Homo sapiens, UniProt Q02779); assay: Inhibition of human wild type MLK2 using Histon H2B as substrate preincubated for 2 hrs followed by ATP addition and measured every 2 mins for […] by spectrophotometric analysis
[22] = target: Muscle, skeletal receptor tyrosine-protein kinase (Homo sapiens, UniProt O15146); assay: Inhibition of human wild type MUSK using Poly(Ala,Glu,Lys,Tyr)6:2:5:1 as substrate preincubated for 2 hrs followed by ATP addition and measured every 2 mins for […] by spectrophotometric analysis
[23] = target: Lymphokine-activated killer T-cell-originated protein kinase (Homo sapiens, UniProt Q96KB5); assay: Inhibition of human wild type PBK using Histon H1 as substrate preincubated for 2 hrs followed by ATP addition and measured every 2 mins for […] by spectrophotometric analysis
Sequence of Lymphokine-activated killer T-cell-originated protein kinase (Q96KB5 whole entry): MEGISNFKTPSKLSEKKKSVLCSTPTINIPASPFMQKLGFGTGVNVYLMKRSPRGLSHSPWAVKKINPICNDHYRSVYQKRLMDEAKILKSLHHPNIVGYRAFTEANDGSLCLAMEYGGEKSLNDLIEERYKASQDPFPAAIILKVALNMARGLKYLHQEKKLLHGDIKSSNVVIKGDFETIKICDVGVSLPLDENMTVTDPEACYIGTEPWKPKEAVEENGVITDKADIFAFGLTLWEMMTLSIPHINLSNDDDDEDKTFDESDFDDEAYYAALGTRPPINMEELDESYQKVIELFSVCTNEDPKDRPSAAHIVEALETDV

[24] = target: Serine/threonine-protein kinase 33 (Homo sapiens, UniProt Q9BYT3); assay: Inhibition of human wild type STK33 using RBER-CHKtide as substrate preincubated for 2 hrs followed by ATP addition and measured every 2 mins for […] by spectrophotometric analysis
[25] = target: Testis-specific serine/threonine-protein kinase 2 (Homo sapiens, UniProt Q96PF2); assay: Inhibition of human wild type TSSK2 using RBER-CHKtide as substrate preincubated for 2 hrs followed by ATP addition and measured every 2 mins for […] by spectrophotometric analysis
[26] = target: Death-associated protein kinase 3 (Homo sapiens, UniProt O43293); assay: Inhibition of human wild type ZIPK using RBER-GSK3([…] to […]) as substrate preincubated for 2 hrs followed by ATP addition and measured every 2 mins for […] by spectrophotometric analysis
Sequence of Death-associated protein kinase 3 (O43293 whole entry): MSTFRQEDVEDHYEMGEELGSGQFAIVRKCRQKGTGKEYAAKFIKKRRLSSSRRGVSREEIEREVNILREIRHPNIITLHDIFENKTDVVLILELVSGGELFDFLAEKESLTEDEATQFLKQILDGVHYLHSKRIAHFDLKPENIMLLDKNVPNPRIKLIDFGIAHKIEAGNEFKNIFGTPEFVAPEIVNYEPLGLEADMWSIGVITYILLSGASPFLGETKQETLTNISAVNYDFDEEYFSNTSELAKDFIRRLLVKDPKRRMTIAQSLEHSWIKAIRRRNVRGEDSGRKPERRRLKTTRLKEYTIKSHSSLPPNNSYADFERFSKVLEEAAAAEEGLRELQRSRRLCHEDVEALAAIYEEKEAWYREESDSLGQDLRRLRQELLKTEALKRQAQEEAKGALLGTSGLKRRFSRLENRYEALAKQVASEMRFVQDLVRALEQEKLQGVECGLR

[27] = Toxicity in Balb/c mouse assessed as hindlimb paralysis; conditions: in vivo
[28] = system: Leukemia cell; assay: Cytotoxicity against human Leukemia cell assessed as reduction in cell viability measured after 72 hrs by MTT assay; assay type: functional, cell-based
[29] = target: Tyrosine-protein kinase ABL1 (Homo sapiens, UniProt P00519); conditions: Sf9, time 2.0 hrs

IC50 [2]: 25 nM
IC50 [3]: 88 nM
IC50 [4]: 10 nM
IC50 [5]: 710 nM
IC50 [6]: 170 nM
IC50 [7]: 620 nM
IC50 [8]: 450 nM
IC50 [9]: 240 nM
IC50 [10]: 250 nM
IC50 [11]: > 1000 nM
IC50 [12]: > 1000 nM
IC50 [13]: > 1000 nM
IC50 [15]: > 1000 nM
IC50 [16]: > 1000 nM
IC50 [17]: > 1000 nM
IC50 [18]: > 1000 nM
IC50 [19]: > 1000 nM
IC50 [20]: > 1000 nM
IC50 [21]: > 1000 nM
IC50 [22]: > 1000 nM
IC50 [24]: > 1000 nM
IC50 [25]: > 1000 nM
T1/2 [29]: 6.7 h
Compound: CNC(=O)c1cc(Oc2ccc(NC(=O)Nc3cc(C(C)(C)C)nn3-c3ccc4ncccc4c3)c(F)c2)ccn1 [REBASTINIB]
Activity [1]: Active
IC50 [14]: > 1000 nM
IC50 [23]: > 1000 nM
IC50 [26]: > 1000 nM
Activity [27]: Toxic
Activity [28]: Active
